Measured values published in paper PMC12298270, “Development and Validation of a New LC-MS/MS Method for Simultaneous Quantification of Ivacaftor, Tezacaftor and Elexacaftor Plasma Levels in Pediatric Cystic Fibrosis Patients” (Pharmaceuticals, 2025).
Like-named read-outs stand apart in the source and are kept apart here.

How the values were obtained:
[1] = Plasma levels of IVA, TEZ and ELX by LC-MS/MS in pediatric cystic fibrosis patients at steady state on Kaftrio; type: in vivo, human; conditions: for Cmax at 4 h / AUC(0-t): both sexes, human, plasma, oral; for Cmax at 4 h / Plasma concentration T0 (Ctrough), 25th Percentile / Plasma concentration T0 (Ctrough), 75th Percentile / Plasma concentration T0 (Ctrough), Median: steady state; for Cmax at 4 h: 4 h after morning Kaftrio dose; for Plasma concentration T0 (Ctrough), 25th Percentile / Plasma concentration T0 (Ctrough), 75th Percentile / Plasma concentration T0 (Ctrough), Median: before morning Kaftrio dose
Description: The clinical performance of our validated method was tested on n = 25 samples from pediatric patients affected by cystic fibrosis. Table 5 reports plasma concentrations of IVA, TEZ and ELX measured before (T0) and 4 h after (T4) the morning dose assumption of Kaftrio® (corresponding to IVA Tmax). For IVA, the plasma concentration at 12 h (T12) was obtained by using C4h*e^−β(t12−t4), and the AUC0–12h was calculated to assess the systemic exposure within the interval between two doses (Table 5). Thereafter, AUC0–12h values were multiplied by 2 in order to perform a regression analysis of T0 concentrations versus AUC0–24h.
The clinical applicability of our validated method was tested on n = 25 plasma samples from pediatric patients with a median (range) age of 9.5 (7–17) years and affected by cystic fibrosis (CF). These patients (n = 14 males and n = 11 females) were followed-up during the routine clinical practice at Pneumology and Cystic Fibrosis Unit of Bambino Gesù Children’s Hospital, and were concomitantly receiving therapies with pancreatic enzymes, bronchodilators, antibiotics (including carbapenems, macrolides, beta-lactams, lipopeptides, fluoroquinolones) and proton pump inhibitors.
In order to evaluate systemic exposure to each CFTR modulator, drug levels were measured at steady-state by collecting EDTA–whole blood samples before (T0, corresponding to the minimum plasma concentration, Ctrough,) and 4 h after the morning dose intake (T4, corresponding to the maximum concentration, Cmax). After centrifugation at 3500 rcf for 5 min, plasma was recovered from whole blood samples. Plasma samples were collected and stored at −80 °C until analysis.
According to the Kaftrio® summary of product characteristics (SmPC), patients received a morning dose consisting of two ivacaftor 75 mg/tezacaftor, 50 mg/elexacaftor, 100 mg tablets, whereas one ivacaftor 150 mg tablet was taken in the evening (every 12 h).
Elexacaftor/tezacaftor/ivacaftor plasma levels were determined using high-performance liquid chromatography (HPLC) coupled to mass spectrometry (MS/MS). EDTA–whole blood samples were collected before (T0) and 4 h after (T4) morning drug intake. Analysis of Kaftrio® plasma levels was performed at Division of Metabolic Diseases and Drug Biology of Bambino Gesù Children’s Hospital, IRCCS, in Rome (Italy). The liquid chromatography (LC) system consisted of an UHPLC Agilent 1290 Infinity II (Agilent Technologies, Deutschland GmbH, Waldbronn, Germany). Gradient chromatographic separation was performed in reverse phase mode with a Luna Omega 1.60 µm Polar C18 (100 × 2.1 mm) column (Phenomenex) maintained at 40 °C, with mobile phase A (0.1% formic acid (FA) in water) and mobile phase B (0.1% formic acid and 25% of 2-propanol in ACN). The flow rate of mobile phases was 0.4 mL/min. The duration of each chromatographic run was 10.50 min.
The volume injected was 1 μL. Detection of IVA, IVA-d9, TEZ, TEZ-d4, ELX and ELX-d3 was carried out using a 6470 Mass Spectrometry system (Agilent Technologies, Deutschland GmbH, Waldbronn, Germany) equipped with an ESI-JET-STREAM source operating in the positive ion (ESI+) mode. Mass spectrometric conditions were as follows: Gas Temperature 350 °C, Gas Flow 9 L/min, Sheath Gas Temperature 300 °C, Sheath Gas Flow 9 L/min, Capillary 4000 V, Nebulizer 35 psi.
A 10 µL measure of IS working solution with IVA-d9, TEZ-d4 and ELX-d3 was added to 50 µL of plasma or CAL or QC or blank sample in darkened tubes. After vortexing for 5 s, 300 µL of pure ACN were added to each sample. Samples were mixed for 60 s and centrifuged at 13,000 rpm for 9 min at room temperature. Thereafter, 200 µL of supernatant were collected in amber glass vials and injected into the UHPLC-MS/MS system.
Demographic data and PK parameters were analyzed using descriptive statistics. The median with interquartile range (IQR) was used to describe Ctrough levels. […]

[2] = Short- and long-term autosampler stability of prepared QC samples at room temperature; type: physicochemical; conditions: for Stability (%): autosampler; for 9-day autosampler stability: across L-, M- and H-QC levels
Description: Both short- and long-term stability were evaluated on prepared QC samples kept at room temperature for a maximum of 9 days. After 24 h from QC sample preparation and first assessment (Time 0), the stability was around 100% for all QC samples. […] Autosampler stability was tested by analyzing IVA, TEZ and ELX concentrations in QCs maintained at room temperature at time 0 (corresponding to preparation of QC samples and to the first measurement) and after 24 h (short-term stability) or 9 days (long-term stability). We also evaluated, on prepared low-, medium- and high-QC samples, the stability following one cycle of freezing (−80 °C) and thawing (after 12 days). To further assess long-term stability, n = 3 T0 and T4 of authentic samples, stored at −80 °C over a period of five months, were randomly chosen and re-analyzed. The percentage difference between the concentration measured at each sampling point and the initial concentration was calculated. Based on ICH guideline M10, a percentage difference below the 15% was considered acceptable.

[3] = Stability of prepared QC samples after one cycle of freezing (−80 °C) and thawing; type: physicochemical; conditions: low-, medium- and high-QC samples, thawed after 12 days
Description: (§1) We have also evaluated the stability of prepared low-, medium- and high-QC samples following one cycle of freezing (−80 °C) and thawing (after 12 days). The calculated stability for ivacaftor, tezacaftor and elexacaftor was 100–107% after 12 days. Patient samples (n = 3 T0 and T4) were randomly selected and re-analyzed after being stored at −80 °C over a period of five months. Compared to the first measurement (time 0), the stability ranged from 85.48 ± 19.83% (mean ± SD) for IVA T4 to 90.55 ± 2.42% for ELX T0 (Supplementary Table S2). Autosampler stability was tested by analyzing IVA, TEZ and ELX concentrations in QCs maintained at room temperature at time 0 (corresponding to preparation of QC samples and to the first measurement) and after 24 h (short-term stability) or 9 days (long-term stability). We also evaluated, on prepared low-, medium- and high-QC samples, the stability following one cycle of freezing (−80 °C) and thawing (after 12 days). To further assess long-term stability, n = 3 T0 and T4 of authentic samples, stored at −80 °C over a period of five months, were randomly chosen and re-analyzed. The percentage difference between the concentration measured at each sampling point and the initial concentration was calculated. Based on ICH guideline M10, a percentage difference below the 15% was considered acceptable.

[4] = Long-term −80 °C stability of authentic patient plasma samples; type: physicochemical, human; conditions: for Stability, % of the first measurement: n = 3 T0 and T4 patients' samples, −80 °C, five months; for Stability (%) mean ± SD, T0 samples / Stability (%) mean ± SD, T4 samples: patient plasma n = 3, stored at −80 °C, 5 months vs Time 0
Description: as §1

[5] = parameters: method as in ref 18 = [18]; 18. U.S. Food and Drug Administration Center for Drug Evaluation and Research: Nda/Bla, Multi-Disciplinary Review and Evaluation, Lumacaftor/Ivacaftor Available online: https://www.accessdata.fda.gov/; conditions: Trikafta drug registration documents; cited from earlier work
[6] = parameters: method as in ref 22 = [22]; 22. Kaftrio®, Summary of Product Characteristics (SmPC), European Medicine Agency (EMA) Available online: https://www.ema.europa.eu/en/medicines/human/EPAR/kaftrio (accessed on 3 March 2024); conditions: cited from earlier work
[7] = parameters: method as in PMID 36831163; conditions: cited from earlier work
[8] = parameters: method as in PMID 38494378; conditions: cited from earlier work
[9] = parameters: method as in PMID 40245791; conditions: H-QC, after sample preparation; cited from earlier work
[10] = parameters: method as in PMID 36015300; conditions: cited from earlier work
[11] = test system: CFTR; parameters: method as in PMID 36015300; conditions: cited from earlier work
[12] = n = 25 pediatric CF patients, read-out: Plasma concentration T4 (Cmax), 25th Percentile
[13] = n = 25 pediatric CF patients, read-out: Plasma concentration T4 (Cmax), 75th Percentile
[14] = n = 25 pediatric CF patients, read-out: Plasma concentration T4 (Cmax), Median
[15] = H-QC (18 µg/mL), 24 H vs Time 0
[16] = H-QC (18 µg/mL), Day 9 vs Time 0
[17] = L-QC (0.3 µg/mL), 24 H vs Time 0
[18] = L-QC (0.3 µg/mL), Day 9 vs Time 0
[19] = M-QC (8 µg/mL), Day 9 vs Time 0
[20] = Kaftrio drug registration documents

| Cmax at 4 h [1, 12] | Cmax at 4 h [1, 13] | Cmax at 4 h [1, 14] | Plasma concentration T0 (Ctrough), 25th Percentile ([1]; n = 25 pediatric CF patients) | Plasma concentration T0 (Ctrough), 75th Percentile ([1]; n = 25 pediatric CF patients) | Plasma concentration T0 (Ctrough), Median ([1]; n = 25 pediatric CF patients) | Stability (%) [2, 15] | Stability (%) [2, 16] | Stability (%) [2, 17] | Stability (%) [2, 18] | Stability (%) ([2]; M-QC (8 µg/mL), 24 H vs Time 0) | Stability (%) [2, 19] | Stability after one cycle of freezing and thawing [3] | Stability, % of the first measurement [4] | Stability (%) mean ± SD, T0 samples [4] | Stability (%) mean ± SD, T4 samples [4] | SMILES | Ctrough (Cmin), mean ± SD [5] | Remaining % after ten days in the autosampler [9] | Minimum concentration (Cmin), median (range) [8] | Tmax [10] | other results |
| --- | --- | --- | --- | --- | --- | --- | --- | --- | --- | --- | --- | --- | --- | --- | --- | --- | --- | --- | --- | --- | --- |
| 1070 ng/mL | 2430 ng/mL | 1490 ng/mL | 370 ng/mL | 1340 ng/mL | 790 ng/mL | 101.29% | 73.54% | 101.51% | 75.75% | 99.88% | 78.27% | 100–107% | higher than 85% | 86.96 ± 3.98% | 85.48 ± 19.83% | CC(C)(C)c1cc(C(C)(C)C)c(NC(=O)c2c[nH]c3ccccc3c2=O)cc1O [IVA, Ivacaftor] | 630 ± 260 ng/mL | 88% | – | – | AUC(0-t) ([1]; n = 25 pediatric CF patients, C12h estimated as C4h*e^−β(t12−t4), read-out: Measured AUC0–12h, 25th Percentile): 7930 ng·h/mL; AUC(0-t) ([1]; n = 25 pediatric CF patients, C12h estimated as C4h*e^−β(t12−t4), read-out: Measured AUC0–12h, 75th Percentile): 19400 ng·h/mL; AUC(0-t) ([1]; n = 25 pediatric CF patients, C12h estimated as C4h*e^−β(t12−t4), read-out: Measured AUC0–12h, Median): 11400 ng·h/mL; Back-calculated Ctrough (T0), median (IQR) ([1]; from regression equation of AUC0–24h versus Ctrough (y = 27.6 * x + 4.30)): 0.80 (0.42–1.32) µg/mL; Measured AUC0–12h, 25th Percentile ([1]; n = 25 pediatric CF patients, C12h estimated as C4h*e^−β(t12−t4)): 5330 ng·h/mL; 9-day autosampler stability ([2]; 9 days from day 0): 76%; 9-day autosampler stability ([2]; 9 days from day 0, listed as ivacaftor): 73.54–78.27%; AUC0–12h, mean ± SD [6, 20]: 11700 ± 4010 ng·h/mL; Cmax, mean ± SD [6, 20]: 1240 ± 340 ng/mL; Ctrough, mean ± SD ([7]; adult patients): 900 ± 370 ng/mL; Ctrough, mean ± SD ([7]; children): 710 ± 200 ng/mL; Back-calculated Ctrough, mean ± 1.96 SD [8]: 700 ng/mL |
| 3750 ng/mL | 6320 ng/mL | 4520 ng/mL | 720 ng/mL | 1870 ng/mL | 1370 ng/mL | 101.39% | 105.83% | 96.55% | 103.79% | 100.12% | 105.32% | 100–107% | higher than 85% | 89.35 ± 4.87% | 85.51 ± 11.87% | CC(C)(CO)c1cc2cc(NC(=O)C3(c4ccc5c(c4)OC(F)(F)O5)CC3)c(F)cc2n1C[C@@H](O)CO [TEZ, Tezacaftor] | 2100 ± 820 ng/mL | 99.8% | 1300 ng/mL | 3 h | Effect of simultaneous ingestion of fatty food on exposure ([6]; Kaftrio SmPC): not affected |
| – | – | – | – | – | – | – | – | – | – | – | – | – | – | – | – | CC(C)(C)c1cc(C(C)(C)CO)c(O)cc1NC(=O)c1c[nH]c2ccccc2c1=O [M1-IVA, hydroxymethyl ivacaftor] | – | – | – | – | Potency of metabolite relative to parent compound [11]: 1/6 |
| 13300 ng/mL | 24100 ng/mL | 17800 ng/mL | 5820 ng/mL | 12940 ng/mL | 8730 ng/mL | 98.74% | 114.46% | 101.72% | 113.79% | 99.76% | 113.09% | 100–107% | higher than 85% | 90.55 ± 2.42% | 89.18 ± 18.05% | Cc1nn(C)cc1S(=O)(=O)NC(=O)c1ccc(-n2ccc(OCC(C)(C)C(F)(F)F)n2)nc1N1C[C@@H](C)CC1(C)C [ELX, Elexacaftor] | 4050 ± 2070 ng/mL | 99.8% | 2800 ng/mL | 6 h | – |
